The results in this text go back to patent US9133139B2, “Fluoroalkyl-1,4-benzodiazepinone compounds” (BRISTOL-MYERS SQUIBB COMPANY, priority 2012, dated 2015).

Molecules are shown by their SMILES.

Series [1] in a line: Human metabolic stability half-life assay (liver microsomes). The settings on record: pH 7.4, human liver microsomes, CYP-mediated (NADPH-dependent), 0.5 μM compound, 45-minute time course, read-out: HLM (t1/2, min). Type of series: in vitro ADME. As for the experimental part:
Metabolic Stability Half-Life Panel
Result Interpretation Guideline
Incubation with Liver Microsomes
Sample Analysis—Instrumentation

The test system of another series is human Notch 3. In words: Notch-CBF1 Transactivation Assay (luciferase reporter, transfected HeLa cells), Notch 3. The settings on record: read-out: Notch 3 (IC50); HeLa cells transfected with truncated Notch 3 and CBF1 luciferase reporter, 18 hours incubation. Type of series: cell-based. An excerpt: (§1) Notch-CBF1 Transactivation Assay
(§2) The Notch-CBF1 (C-promoter binding factor I) cell based transactivation assay is based on the ability of the released Notch intracellular domain fragments (NICDs) to function as transcription factors in conjunction with CBF1 and other nuclear factors. Luciferase assays were used to measure the antagonism of Notch-CBF1 transcriptional activity. HeLa cervical cancer cells are transiently co-transfected with pCDNA3.1/Hygro plasmids containing truncated Notch 1, Notch 2, Notch 3, or Notch 4 receptors and a PGL3 luciferase reporter vector containing 4 copies of CBF1 binding site. The cells were then tested for Notch-CBF1 activity in the absence or presence of test compounds. HeLa cells, maintained in DMEM (high glucose with HEPES), 1× glutamine/penicillin/streptomycin and 10% Fetal Bovine serum, were transiently transfected in a T175 Flask (4.5×10^6 cells/flask) using the Monster Transfection Kit (Minis #MIR2906) according to manufacturers specifications. Table 2 denotes respective DNA quantity for the transfections.
(§3) Assay media (5 μL) containing test compounds in final concentrations ranging from 5 μM to 8.4×10^−5 μM (3 fold serial dilutions) were added to the cells and the cell plates were then incubated for 18 hours at 37° C. and 5% CO2. Control wells contained DMSO vehicle (total counts) or 0.5 μM of an in-house small molecule inhibitor (background counts). Duplicates were used for each sample. Luciferase activity was measured after a 20-minute incubation with 50 μl STEADY-GLO® luciferase reagents according to manufacturer's specifications (Promega, Cat. #E2550) and analyzed by Envision plate reader (PerkinElmer, Boston, Mass.).
(§4) The antagonist effect of compounds was expressed as 100×[1−(average sample−average background)/(average total−average background)] where sample is the luciferase activity in the presence of test compound, background is equal to the luciferase activity in the presence of the small molecule inhibitor control and the total is signal induced in DMSO wells.

A further series relates to human Notch 1. Kind of series: Notch-CBF1 Transactivation Assay (luciferase reporter, transfected HeLa cells), Notch 1. Type of series: cell-based. The settings on record: read-out: Notch 1 (IC50); HeLa cells transfected with truncated Notch 1 and CBF1 luciferase reporter, 18 hours incubation.
Description: as §1, §2, §3, §4

The subject of a further series is TALL-1. Kind of series: Human Tumor Xenograft Models in Mice, TALL-1. The settings on record: for Antitumor Activity in TALL-1 (LCK), BID dosing: BID × 10, TALL-1 xenograft in NOD-SCID mice; for antitumor activity with oral administration (PO): Human Tumor Xenograft Models in mice. Type of series: in vivo. As for the experimental part:
Human Tumor Xenograft Models in Mice
Mice were fed food and water ad libitum.
Preclinical Chemotherapy Trials
When death occurred, the day of death was recorded.
In Vivo Antitumor Activity

A short description of series [2]: High Throughput (HT) Metabolic Stability Panel, dog microsomes. It is filed as in vitro ADME. The settings on record: ten-minute incubation, control compound expected values. As for the experimental part:
(§5) High Throughput (HT) Metabolic Stability Panel
(§6) Each compound was tested in duplicate.
(§7) Methods and Materials Incubation with Liver Microsomes
(§8) Peak integration was performed with the XCALIBUR® software.
(§9) A set of three compounds was tested along with the test compound in each assay plate.

Series [3] in a line: High Throughput (HT) Metabolic Stability Panel, human microsomes. Type of series: in vitro ADME. The settings on record: ten-minute incubation, control compound expected values. As for the experimental part: as §5, §6, §7, §8, §9
Series [4] is described as follows: High Throughput (HT) Metabolic Stability Panel, rat microsomes. It is filed as in vitro ADME. The settings on record: ten-minute incubation, control compound expected values. As for the experimental part:
as §5, §6, §7, §8, §9

The nature of series [5]: High Throughput (HT) Metabolic Stability Panel, monkey microsomes. The settings on record: ten-minute incubation, control compound expected values. It is filed as in vitro ADME. As for the experimental part: as §5, §6, §7, §8, §9
A short description of series [6]: High Throughput (HT) Metabolic Stability Panel, mouse microsomes. The settings on record: ten-minute incubation, control compound expected values. It is filed as in vitro ADME. As for the experimental part:
as §5, §6, §7, §8, §9

Take `Cc1cccc2c1NC(=O)[C@@H](NC(=O)[C@H](CCC(F)(F)F)[C@@H](C(N)=O)c1conc1C)N=C2c1ccc(F)cc1` [Example 33, (2R,3R)—N1-((S)-5-(4-Fluorophenyl)-9-methyl-2-oxo-2,3-dihydro-1H-benzo[e][1,4]diazepin-3-yl)-3-(3-methylisoxazol-4-yl)-2-(3,3,3-trifluoropropyl)succinamide]: the half-life at 0.5 μM in series [1] is at least 30 min. For the same compound, the IC50 in the series with human Notch 3 was determined as 11.5 nM; in the series with human Notch 1 it was 19 nM.

With `NC(=O)[C@@H](c1ccccc1)[C@@H](CCC(F)(F)F)C(=O)N[C@H]1N=C(c2ccccc2)c2cccc(OC3CC3)c2NC1=O` [Example 26, (2R,3R)—N1-((S)-9-Cyclopropoxy-2-oxo-5-phenyl-2,3-dihydro-1H-benzo[e][1,4]diazepin-3-yl)-3-phenyl-2-(3,3,3-trifluoropropyl)succinamide], the “Antitumor Activity in TALL-1 (LCK), BID dosing” value in the series with TALL-1 (Dose 10 (unit not given), oral) amounted to 1.4 LCK. For the same compound, the “antitumor activity with oral administration (PO)” value (from here on “antitumor activity … (PO)”) in the series with TALL-1 is “showed antitumor activity”. Besides, in [1], the half-life at 0.5 μM is at least 30 min.

Turning to `COc1cccc2c1NC(=O)[C@@H](NC(=O)[C@H](CCC(F)(F)F)[C@@H](C(N)=O)c1ccccc1)N=C2c1ccccc1` [Example 21, (2R,3R)—N1-((S)-9-Methoxy-2-oxo-5-phenyl-2,3-dihydro-1H-benzo[e][1,4]diazepin-3-yl)-3-phenyl-2-(3,3,3-trifluoropropyl)succinamide], the “Antitumor Activity in TALL-1 (LCK), QD dosing” value in the series with TALL-1 (Dose 40 (unit not given), oral, QD, TALL-1 xenograft in NOD-SCID mice) came out at 2.7 LCK. Also, the “antitumor activity … (PO)” value with TALL-1 is listed as “showed antitumor activity”. Further, in series [1], the half-life at 0.5 μM is at least 30 min.

Regarding `NC(=O)[C@@H](c1ccccc1)[C@@H](CCC(F)(F)F)C(=O)N[C@H]1N=C(c2ccccc2)c2ccccc2N(c2ccc(Cl)cn2)C1=O` [Example 22, (2R,3R)—N-((3S)-1-(5-Chloro-2-pyridinyl)-2-oxo-5-phenyl-2,3-dihydro-1H-1,4-benzodiazepin-3-yl)-3-phenyl-2-(3,3,3-trifluoropropyl)succinamide], the IC50 in the series on human Notch 3 amounted to 11.6 nM; in the series on human Notch 1, 16 nM.

With `Cc1nocc1[C@H](C(N)=O)[C@@H](CCC(F)(F)F)C(=O)N[C@H]1N=C(c2ccccc2)c2ccccc2N(c2ccc(Cl)cn2)C1=O` [Example 23, (2R,3R)—N-((3S)-1-(5-Chloro-2-pyridinyl)-2-oxo-5-phenyl-2,3-dihydro-1H-1,4-benzodiazepin-3-yl)-3-(3-methyl-4-isoxazolyl)-2-(3,3,3-trifluoropropyl)succinamide], the half-life at 0.5 μM in series [1] was at least 30 min. For the same compound, the IC50 in the series with human Notch 3 was 13.7 nM; with human Notch 1, 15.4 nM.

Consider `COc1cc(C#N)cc2c1NC(=O)[C@@H](NC(=O)[C@H](CCC(F)(F)F)[C@@H](C(N)=O)c1ccccc1)N=C2c1ccccc1` [Example 25, (2R,3R)—N1-((S)-7-Cyano-9-methoxy-2-oxo-5-phenyl-2,3-dihydro-1H-benzo[e][1,4]diazepin-3-yl)-3-phenyl-2-(3,3,3-trifluoropropyl)succinamide], for which the values for the IC50 in the series with human Notch 3 and in the series on human Notch 1 were 19.1 nM and 24.2 nM, respectively.

As to `Cc1cccc2c1NC(=O)[C@@H](NC(=O)[C@H](CCC(F)(F)F)[C@@H](C(N)=O)c1ccccc1)N=C2c1cccc(Cl)c1` [Example 31, (2R,3R)—N1-((S)-5-(3-Chlorophenyl)-9-methyl-2-oxo-2,3-dihydro-1H-benzo[e][1,4]diazepin-3-yl)-3-phenyl-2-(3,3,3-trifluoropropyl)succinamide], the “antitumor activity … (PO)” value with TALL-1 is “showed antitumor activity”. In [1], the half-life at 0.5 μM was at least 30 min.

On to `NC(=O)[C@@H](c1cccnc1)[C@@H](CCC(F)(F)F)C(=O)N[C@H]1N=C(c2ccccc2)c2ccccc2NC1=O` [Example 10, (2R,3R)—N1-((S)-2-Oxo-5-phenyl-2,3-dihydro-1H-benzo[e][1,4]diazepin-3-yl)-3-(pyridin-3-yl)-2-(3,3,3-trifluoropropyl)succinamide], for which the IC50 with human Notch 3 came out at 22.9 nM; with human Notch 1, 19.3 nM.

Regarding `Cc1cccc2c1NC(=O)[C@@H](NC(=O)[C@H](CCC(F)(F)F)[C@@H](C(N)=O)c1ccccc1)N=C2c1ccccc1` [Example 30, (2R,3R)—N1-((S)-9-Methyl-2-oxo-5-phenyl-2,3-dihydro-1H-benzo[e][1,4]diazepin-3-yl)-3-phenyl-2-(3,3,3-trifluoropropyl)succinamide], in the series with TALL-1 (Dose 20 (unit not given), oral), the “Antitumor Activity in TALL-1 (LCK), BID dosing” value came out at 1.2 LCK. Besides, the “antitumor activity … (PO)” value with TALL-1 is recorded as “showed antitumor activity”. The half-life at 0.5 μM in [1] is at least 30 min.

On to `Cc1cccc2c1NC(=O)[C@@H](NC(=O)[C@H](CCC(F)(F)F)[C@@H](C(N)=O)c1ccccc1)N=C2c1cccc(F)c1` [Example 5, (2R,3R)—N1-((S)-5-(3-Fluorophenyl)-9-methyl-2-oxo-2,3-dihydro-1H-benzo[e][1,4]diazepin-3-yl)-3-phenyl-2-(3,3,3-trifluoropropyl)succinamide], for which the half-life at 0.5 μM in series [1] was at least 30 min. Moreover, the IC50 in the series with human Notch 3 came to 14.2 nM.

With `CCc1nn(CCCN2CCN(c3cccc(Cl)c3)CC2)c(=O)n1CCOc1ccccc1` [Nefazodone], the “Average Percent Remaining ± SD, Dog” value in series [2] was 0.4 ± 0.4%. Moreover, in [3], the “Average Percent Remaining ± SD, Human” value was 0.4 ± 0.4%. Also, the “Average Percent Remaining ± SD, Rat” value in series [4] came out at 0.7 ± 0.6%. Also, the “Average Percent Remaining ± SD, Monkey” value in series [5] was found to be 0.6 ± 0.5%. Besides, the “Average Percent Remaining ± SD, Mouse” value in series [6] came to 0.4 ± 0.3%.
